Earlier results as cited in US20220031737A1, “PHARMACEUTICAL COMPOSITIONS COMPRISING CHROMIUM AND CARBOHYDRATE BLOCKERS” (GluCare LLC, priority 2016, published 2022).

How the values were obtained:
[1] = Sprague-Dawley rats, gavage, % of control
[2] = 1,000 μg of chromium per day
[3] = overweight African-American females, caloric restriction and exercise combined with oral NBC

**Q.** Which “Glucose elevations above baseline over four hours following rice starch challenge, of control” value [1] does the source give for O=C[C@H](O)[C@@H](O)[C@@H](O)CO [L-arabinose] here?
**A.** 85%

**Q.** With [Cr] [chromium] as the compound, how does the “Relief of symptoms of type 2 diabetes” value [2] read?
**A.** highly effective

**Q.** With niacin-bound chromium [NBC] as the compound, how does the “Fat loss and muscle loss compared to control group without NBC supplement” value [3] read?
**A.** increased fat loss and reduced muscle loss significantly
